Target: T1, Kinesin-like protein KIF18A (Homo sapiens, UniProt Q8NI77)
T1 sequence (Q8NI77 whole entry): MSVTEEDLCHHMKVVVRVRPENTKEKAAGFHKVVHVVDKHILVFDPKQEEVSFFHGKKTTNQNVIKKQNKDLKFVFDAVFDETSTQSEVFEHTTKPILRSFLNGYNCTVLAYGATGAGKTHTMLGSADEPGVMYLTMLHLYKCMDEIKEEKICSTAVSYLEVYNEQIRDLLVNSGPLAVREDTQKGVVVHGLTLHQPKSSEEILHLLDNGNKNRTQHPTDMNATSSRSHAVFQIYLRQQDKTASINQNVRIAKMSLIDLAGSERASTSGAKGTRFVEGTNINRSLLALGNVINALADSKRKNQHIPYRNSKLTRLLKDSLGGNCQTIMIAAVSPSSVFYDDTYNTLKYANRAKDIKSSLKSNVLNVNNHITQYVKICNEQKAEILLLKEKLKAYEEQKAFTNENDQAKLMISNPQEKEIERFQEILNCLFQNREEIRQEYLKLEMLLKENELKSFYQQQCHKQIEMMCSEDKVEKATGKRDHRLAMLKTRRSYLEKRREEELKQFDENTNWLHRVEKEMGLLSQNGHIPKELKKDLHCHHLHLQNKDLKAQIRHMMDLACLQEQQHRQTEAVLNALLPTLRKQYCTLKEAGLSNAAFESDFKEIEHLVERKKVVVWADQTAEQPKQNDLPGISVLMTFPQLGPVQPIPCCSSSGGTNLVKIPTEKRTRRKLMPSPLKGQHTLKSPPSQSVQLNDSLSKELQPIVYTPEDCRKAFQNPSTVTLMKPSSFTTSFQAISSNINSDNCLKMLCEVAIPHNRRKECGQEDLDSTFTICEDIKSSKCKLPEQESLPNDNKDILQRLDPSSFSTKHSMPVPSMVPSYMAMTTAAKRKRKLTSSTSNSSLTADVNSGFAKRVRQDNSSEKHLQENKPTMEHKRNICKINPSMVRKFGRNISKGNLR
Assay: Inhibition of recombinant His-tagged human KIF18A (1 to 467 residues) expressed in baculovirus expression system assessed as inhibition of microtubule-stimulated ATPase activity preincubated for 15 mins followed by ATP addition and further incubated for 15 mins and measured after 40 mins by ADP-Glo reagent based assay

C[C@@H]1CN(c2cccc(NC(=O)c3ccc(NS(=O)(=O)CC(F)F)cc3N3CCC4(CC3)CC4)n2)CCO1
IC50: 0.067 µM

Cc1cc(NC(=O)c2ccc(NS(=O)(=O)CCO)cc2N2CCC3(CC2)CC3)nc(N2CC(F)(F)C2)c1
IC50: 0.024 µM

O=C(Nc1cccc(OC(F)F)n1)c1ccc(NS(=O)(=O)CCO)cc1N1CCC2(CC1)CC2
IC50: 0.045 µM

Reference: ChEMBL document CHEMBL5050848, “Kif18a inhibitors” (2020)
